Source: US9546164B2 (GENENTECH, INC., priority 2013, dated 2017)
Counter-ions that a name gives are not always drawn. Like-named read-outs stand apart in the source and are kept apart here.

Legend:
NaV1.7 = NaV1.7 (Homo sapiens (Human), UniProt Q15858); assay: Patch voltage clamp electrophysiological assay (EP), NaV1.7; assay type: cell-based; conditions: HEK-293 cells stably expressing human NaV1.7 with β1 subunit, whole-cell patch clamp, holding −60 mV
Protocol: Electrophysiological Assay (EP) (In vitro Assay)
Control sodium currents were measured in 0.5% DMSO.
Series resistance compensation was applied (60-80%).

NaV1.5 = NaV1.5 (Homo sapiens (Human), UniProt Q14524); assay: Patch voltage clamp electrophysiological assay (EP), NaV1.5
Chain of NaV1.5 (Q14524 whole entry): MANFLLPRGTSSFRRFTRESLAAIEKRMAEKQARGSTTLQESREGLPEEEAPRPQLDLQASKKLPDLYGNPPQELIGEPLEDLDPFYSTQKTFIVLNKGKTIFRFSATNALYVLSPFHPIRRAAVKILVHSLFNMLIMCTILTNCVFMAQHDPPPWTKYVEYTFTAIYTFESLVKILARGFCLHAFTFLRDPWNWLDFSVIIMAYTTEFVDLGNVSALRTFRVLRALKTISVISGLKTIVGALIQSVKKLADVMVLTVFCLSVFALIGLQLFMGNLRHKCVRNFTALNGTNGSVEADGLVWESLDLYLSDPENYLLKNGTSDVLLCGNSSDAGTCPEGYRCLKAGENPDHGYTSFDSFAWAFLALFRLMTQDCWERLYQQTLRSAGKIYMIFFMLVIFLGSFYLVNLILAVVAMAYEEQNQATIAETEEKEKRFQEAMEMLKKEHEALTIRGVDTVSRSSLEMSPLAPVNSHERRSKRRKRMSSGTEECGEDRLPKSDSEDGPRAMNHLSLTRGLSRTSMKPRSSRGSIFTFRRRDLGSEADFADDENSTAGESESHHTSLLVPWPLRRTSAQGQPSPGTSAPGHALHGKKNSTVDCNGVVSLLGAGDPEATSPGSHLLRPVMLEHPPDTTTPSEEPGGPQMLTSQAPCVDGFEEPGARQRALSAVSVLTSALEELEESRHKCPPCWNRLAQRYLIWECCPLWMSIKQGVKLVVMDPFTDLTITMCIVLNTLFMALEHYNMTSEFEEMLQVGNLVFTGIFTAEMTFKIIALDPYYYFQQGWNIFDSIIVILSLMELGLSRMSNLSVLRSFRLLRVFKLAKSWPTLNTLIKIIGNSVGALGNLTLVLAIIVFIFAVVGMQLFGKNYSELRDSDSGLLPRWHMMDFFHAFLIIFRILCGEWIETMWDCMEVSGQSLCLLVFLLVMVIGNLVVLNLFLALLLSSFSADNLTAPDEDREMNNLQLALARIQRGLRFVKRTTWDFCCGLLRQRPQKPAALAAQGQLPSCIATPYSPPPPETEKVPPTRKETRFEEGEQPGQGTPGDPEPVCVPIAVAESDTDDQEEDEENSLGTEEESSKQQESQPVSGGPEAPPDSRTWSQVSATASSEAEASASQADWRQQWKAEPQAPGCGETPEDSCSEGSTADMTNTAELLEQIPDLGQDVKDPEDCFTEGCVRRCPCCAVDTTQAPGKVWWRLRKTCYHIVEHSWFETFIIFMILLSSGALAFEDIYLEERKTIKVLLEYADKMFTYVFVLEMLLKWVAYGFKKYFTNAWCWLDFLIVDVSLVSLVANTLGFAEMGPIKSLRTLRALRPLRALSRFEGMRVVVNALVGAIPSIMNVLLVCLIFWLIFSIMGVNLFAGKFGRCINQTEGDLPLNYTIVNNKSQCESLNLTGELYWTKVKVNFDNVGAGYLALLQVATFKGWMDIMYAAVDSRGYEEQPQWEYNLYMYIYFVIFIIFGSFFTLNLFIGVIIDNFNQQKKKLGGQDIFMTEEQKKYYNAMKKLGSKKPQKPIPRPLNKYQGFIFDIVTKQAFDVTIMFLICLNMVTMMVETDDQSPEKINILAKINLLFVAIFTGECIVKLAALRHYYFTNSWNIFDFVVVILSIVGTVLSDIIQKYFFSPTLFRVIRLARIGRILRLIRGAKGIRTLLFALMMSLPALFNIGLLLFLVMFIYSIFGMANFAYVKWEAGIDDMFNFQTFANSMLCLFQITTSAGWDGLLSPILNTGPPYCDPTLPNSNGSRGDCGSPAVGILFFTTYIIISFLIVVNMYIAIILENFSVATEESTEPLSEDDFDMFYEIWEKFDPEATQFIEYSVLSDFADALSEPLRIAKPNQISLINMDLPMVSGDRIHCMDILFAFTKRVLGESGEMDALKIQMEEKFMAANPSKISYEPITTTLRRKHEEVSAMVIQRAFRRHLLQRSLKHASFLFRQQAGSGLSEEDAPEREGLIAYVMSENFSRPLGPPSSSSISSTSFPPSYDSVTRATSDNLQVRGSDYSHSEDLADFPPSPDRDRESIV
Protocol: The following patch voltage clamp electrophysiology studies were performed on representative compounds of the invention using human embryonic kidney cells (HEK), permanently transfected with an expression vector containing the full-length cDNA coding for the desired human sodium channel α-subunit, grown in culture media containing 10% FBS, 1% PSG, and 0.5 mg/mL G418 at 37° C. with 5% CO2. […] The β1 subunit was coexpressed in both the NaV1.7 and NaV1.5 cell lines.
Sodium currents were measured rising the patch clamp technique in the whole-cell configuration using either a PatchXpress automated voltage clamp or manually using an Axopatch 200B (Axon Instruments) or Model 2400 (A-M systems) amplifier. […] The pipette was filled with a solution comprised of: 5 mM NaCl, 10 mM CsCl, 120 mM CsF, 0.1 mM CaCl2, 2 mM MgCl2, 10 mM HEPES, 10 mM EGTA; and adjusted to pH 7.2 with CsOH. The external solution had the following composition: 140 mM NaCl, 5 mM KCl, 2 mM CaCl2, 1 mM MgCl2, 10 mM HEPES; and adjusted to pH 7.4 with NaOH. In some studies, the external sodium was reduced by equimolar replacement with choline. Osmolality in the CsF internal and NaCl external solutions was adjusted to 300 mOsm/kg and 310 mOsm/kg with glucose, respectively. All recordings were performed at ambient temperature in a bath chamber with a volume of 150 μL. Control sodium currents were measured in 0.5% DMSO. Controls and representative compounds of the invention were applied to the recording chamber through a 4-pinch or 8-pinch valve bath perfusion system manufactured by ALA Scientific Instruments.
Currents were recorded at 40 kHz sampling frequency, filtered at 5 Hz, and stored using a Digidata-1322A analogue/digital interface with the pClamp software (Axon instruments). Series resistance compensation was applied (60-80%). […] All statistics in this study are given as mean±SD.
The membrane potential was maintained at a voltage where reactivation of the channel is complete (which was −60 mV for both NaV1.7 and NaV1.5). The voltage is then stepped back to a very negative (Vhold=150 mV) voltage for 20 ms and then a test poise is applied to quantify the compound block. The 20 ms brief repolarization was long enough for compound-free channels to completely recover from fast inactivation, but the compound-bound channels recovered more slowly such that negligible recovery could occur during this interval. The percent decrease in sodium current following wash-on of compound was taken as the percent block of sodium channels.

hNav1.7 = hNav1.7 (Homo sapiens (Human), UniProt Q15858); assay: Tritiated sulfonamide competitive binding to membranes from cells expressing hNav1.7 and the β1 subunit;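 note: Filter-bound radioactivity counted by liquid scintillation, nonspecific binding defined with excess unlabelled ligand, IC50 fitted to percent inhibition of specific binding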
Chain of hNav1.7 (Q15858 other isoform, or with tags, fused parts or gaps): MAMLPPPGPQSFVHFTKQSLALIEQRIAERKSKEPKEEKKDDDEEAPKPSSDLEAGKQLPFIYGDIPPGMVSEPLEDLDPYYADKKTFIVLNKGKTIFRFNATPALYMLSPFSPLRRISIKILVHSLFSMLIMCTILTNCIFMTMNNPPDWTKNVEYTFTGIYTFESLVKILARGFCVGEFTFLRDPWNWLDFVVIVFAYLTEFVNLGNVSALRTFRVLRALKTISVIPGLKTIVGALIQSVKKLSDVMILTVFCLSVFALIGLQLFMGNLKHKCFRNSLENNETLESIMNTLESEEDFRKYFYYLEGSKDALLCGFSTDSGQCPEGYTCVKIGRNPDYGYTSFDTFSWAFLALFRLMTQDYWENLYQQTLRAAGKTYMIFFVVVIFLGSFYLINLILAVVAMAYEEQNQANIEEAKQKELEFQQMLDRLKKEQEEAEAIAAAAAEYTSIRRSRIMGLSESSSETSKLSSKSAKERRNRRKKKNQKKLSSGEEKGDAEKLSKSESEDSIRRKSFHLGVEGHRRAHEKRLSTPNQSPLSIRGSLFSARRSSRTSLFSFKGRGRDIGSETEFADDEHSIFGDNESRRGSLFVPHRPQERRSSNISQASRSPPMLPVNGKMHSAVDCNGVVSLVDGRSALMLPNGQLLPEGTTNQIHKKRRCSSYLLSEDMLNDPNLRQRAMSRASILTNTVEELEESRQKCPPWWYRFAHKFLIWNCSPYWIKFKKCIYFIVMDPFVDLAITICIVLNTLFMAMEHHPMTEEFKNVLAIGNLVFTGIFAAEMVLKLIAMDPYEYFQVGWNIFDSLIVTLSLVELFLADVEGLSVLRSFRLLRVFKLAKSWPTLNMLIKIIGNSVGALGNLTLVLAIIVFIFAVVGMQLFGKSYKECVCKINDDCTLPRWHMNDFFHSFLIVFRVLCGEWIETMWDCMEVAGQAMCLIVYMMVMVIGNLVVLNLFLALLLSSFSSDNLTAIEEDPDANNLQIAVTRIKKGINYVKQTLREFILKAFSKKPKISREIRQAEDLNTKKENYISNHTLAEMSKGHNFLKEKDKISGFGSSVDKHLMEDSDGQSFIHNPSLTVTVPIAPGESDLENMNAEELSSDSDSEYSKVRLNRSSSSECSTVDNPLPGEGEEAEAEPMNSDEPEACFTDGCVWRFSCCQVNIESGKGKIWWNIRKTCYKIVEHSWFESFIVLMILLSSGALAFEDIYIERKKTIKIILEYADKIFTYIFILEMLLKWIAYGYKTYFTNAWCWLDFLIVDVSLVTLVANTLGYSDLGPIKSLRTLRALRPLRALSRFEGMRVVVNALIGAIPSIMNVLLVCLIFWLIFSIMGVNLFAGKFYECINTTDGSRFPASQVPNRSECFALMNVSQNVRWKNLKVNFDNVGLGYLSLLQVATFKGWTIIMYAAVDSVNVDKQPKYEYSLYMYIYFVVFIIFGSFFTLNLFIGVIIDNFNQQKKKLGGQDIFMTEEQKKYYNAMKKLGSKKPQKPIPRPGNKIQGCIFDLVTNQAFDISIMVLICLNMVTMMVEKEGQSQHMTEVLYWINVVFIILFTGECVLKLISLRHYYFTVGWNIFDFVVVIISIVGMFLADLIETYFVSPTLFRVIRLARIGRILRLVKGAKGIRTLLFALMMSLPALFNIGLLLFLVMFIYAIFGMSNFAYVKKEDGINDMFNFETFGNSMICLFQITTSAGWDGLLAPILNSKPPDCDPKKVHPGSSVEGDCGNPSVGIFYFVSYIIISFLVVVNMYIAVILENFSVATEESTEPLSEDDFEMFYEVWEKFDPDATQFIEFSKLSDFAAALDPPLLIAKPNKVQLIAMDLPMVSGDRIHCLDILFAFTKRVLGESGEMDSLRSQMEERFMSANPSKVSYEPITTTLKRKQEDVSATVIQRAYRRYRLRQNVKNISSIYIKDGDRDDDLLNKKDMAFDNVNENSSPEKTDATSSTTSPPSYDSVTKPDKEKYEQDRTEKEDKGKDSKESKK
Chain of hNav1.7 (Q07699 19-218 partner): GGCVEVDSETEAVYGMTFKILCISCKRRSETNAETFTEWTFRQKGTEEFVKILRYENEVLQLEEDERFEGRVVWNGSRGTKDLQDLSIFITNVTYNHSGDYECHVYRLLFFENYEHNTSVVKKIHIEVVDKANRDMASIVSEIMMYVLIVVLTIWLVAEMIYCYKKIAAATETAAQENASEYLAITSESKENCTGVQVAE

[1] = read-out: NaV1.5 EP, HEK-293 cells stably expressing human NaV1.5 with β1 subunit, whole-cell patch clamp, holding −60 mV
[2] = read-out: Ligand Binding Assay, 100 pM [3H]compound, membranes with hNav1.7 and β1 subunit, 18 h, room temperature

Chain of NaV1.7 (Q15858 other isoform, or with tags, fused parts or gaps): as the sequence (Q15858 other isoform, or with tags, fused parts or gaps) above
Chain of NaV1.7 (Q07699 19-218 partner): as the sequence (Q07699 19-218 partner) above

| Structure (SMILES) | IC50 (NaV1.7) [nM] | IC50 (NaV1.5; [1]) [nM] | IC50 (hNav1.7; [2]) [nM] | IC50 (NaV1.5) [nM] | IC50 (hNav1.7) [nM] |
| --- | --- | --- | --- | --- | --- |
| CS(=O)(=O)NC(=O)c1cc(C2CC2)c(OCC2CCN(Cc3cc(F)cc(C(F)(F)F)c3)CC2)cc1F [Example 228, 5-Cyclopropyl-2-fluoro-4-((1-(3-fluoro-5-(trifluoromethyl)benzyl)piperidin-4-yl)methoxy)-N-(methylsulfonyl)benzamide] | 31 | 4100 | 5.1 |  |  |
| O=C(NS(=O)(=O)C1CC1)c1cc(C2CC2)c(OCC2CCN(Cc3cc(Cl)cc(Cl)c3)CC2)cc1F [Example 259, 5-Cyclopropyl-N-(cyclopropylsulfonyl)-4-((1-(3,5-dichlorobenzyl)piperidin-4-yl)methoxy)-2-fluorobenzamide] | 23 | 110 | 2.2 |  |  |
| O=C(NS(=O)(=O)C1CC1)c1cc(C2CC2)c(CN2CCO[C@H](Cc3cc(Cl)cc(Cl)c3)C2)cc1F [Example 464, (R)-5-cyclopropyl-N-(cyclopropylsulfonyl)-4-((2-(3,5-dichlorobenzyl)morpholino)methyl)-2-fluorobenzamide] | < 3 | 109 | 2.7 |  |  |
| CCS(=O)(=O)NC(=O)c1cc(C2CC2)c(OCC2CCN([C@@H](c3cc(Cl)cc(Cl)c3)C(C)(C)OC)CC2)cc1F (single isomer, unassigned) [Example 208] | 3 | 13 | 1.6 |  |  |
| CC(C)(c1cc(Cl)cc(Cl)c1)N1CCC[C@@H](Oc2cc(F)c(C(=O)NS(=O)(=O)C3CC3)cc2C2CC2)C1 [Example 495, (R)-5-cyclopropyl-N-(cyclopropylsulfonyl)-4-((1-(2-(3,5-dichlorophenyl)propan-2-yl)oxy)-2-fluorobenzamide, trifluoroacetic acid salt] | 0.2 | 15.4 | 4.4 |  |  |
| COC[C@@H](c1cc(Cl)cc(Cl)c1)N1CCC(COc2cc(F)c(C(=O)NS(C)(=O)=O)cc2C2CC2)CC1 (single isomer, unassigned) [Example 162] | 2.8 |  | 3.9 |  |  |
| O=C(NS(=O)(=O)C1CC1)c1cc(C2CC2)c(CN2[C@@H]3CC[C@H]2C[C@@H](Oc2cc(Cl)cc(Cl)c2)C3)cc1F [Example 475, 5-cyclopropyl-N-(cyclopropylsulfonyl)-4-(((1R,3r,5S)-3-(3,5-dichlorophenoxy)-8-azabicyclo[3.2.1]octan-8-yl)methyl)-2-fluorobenzamide hydrochloride] |  |  |  | 814 |  |
| CS(=O)(=O)NC(=O)c1cc(C2CC2)c(O[C@@H]2CCCN(Cc3ccc(F)cc3Cl)C2)cc1F [Example 312, (R)-4-((1-(2-chloro-4-fluorobenzyl)piperidin-3-yl)oxy)-5-cyclopropyl-2-fluoro-N-(methylsulfonyl)benzamide] | < 1 | 310 | 2.2 |  |  |
| O=C(NS(=O)(=O)C1CC1)c1cc(C2CC2)c(O[C@@H]2CCCN(Cc3cccc(Cl)c3)C2)cc1F [Example 27, (R)-4-((1-(3-chlorobenzyl)piperidin-3-yl)oxy)-5-cyclopropyl-N-(cyclopropylsulfonyl)-2-fluorobenzamide] |  |  |  | 169 | 3.6 |
| COC[C@H](c1cc(Cl)cc(Cl)c1)N1CCC(COc2cc(F)c(C(=O)NS(=O)(=O)N3CCC3)cc2C2CC2)CC1 (single isomer, unassigned) [Example 167] | 4.2 |  |  |  |  |
| CS(=O)(=O)NC(=O)c1cc(C2CC2)c(OCC2(F)CCN(Cc3cc(C(F)(F)F)cc(Cl)c3F)CC2)cc1F [Example 346, 4-((1-(3-chloro-2-fluoro-5-(trifluoromethyl)benzyl)-4-fluoropiperidin-4-yl)methoxy)-5-cyclopropyl-2-fluoro-N-(methylsulfonyl)benzamide trifluoroacetic acid salt] | 2.2 | 682000 | 4.4 |  |  |
| CS(=O)(=O)NC(=O)c1cc(C2CC2)c(OCC2CCN(Cc3cc(F)cc(Cl)c3)CC2)cc1F [Example 268, 4-((1-(3-Chloro-5-fluorobenzyl)piperidin-4-yl)methoxy)-5-cyclopropyl-2-fluoro-N-(methylsulfonyl)benzamide] | 2.8 |  | 6 |  |  |
| O=C(NS(=O)(=O)N1CCC1)c1cc(C2CC2)c(O[C@H]2CCCN(Cc3ccccc3)C2)cc1F [Example 2, (S)—N-(azetidin-1-ylsulfonyl)-4-((1-benzylpiperidin-3-yl)oxy)-5-cyclopropyl-2-fluorobenzamide] | 1080 |  | 4120 |  |  |
| CS(=O)(=O)NC(=O)c1cc(C2CC2)c(CN2CCO[C@H](Cc3cc(Cl)cc(Cl)c3)C2)cc1F [Example 463, (R)-5-cyclopropyl-4-((2-(3,5-dichlorobenzyl)morpholino)methyl)-2-fluoro-N-(methylsulfonyl)benzamide] | < 3 | 669 | 3.8 |  |  |
| CC(C)Oc1ncc(CN2CCC(COc3cc(F)c(C(=O)NS(C)(=O)=O)cc3C3CC3)CC2)cc1Cl [Example 217, 4-((1-((5-Chloro-6-isopropoxypyridin-3-yl)methyl)piperidin-4-yl)methoxy)-5-cyclopropyl-2-fluoro-N-(methylsulfonyl)benzamide] | 2.5 | 190 |  |  |  |
| CC(C)(c1cc(Cl)cc(Cl)c1)N1CCC(COc2cc(F)c(C(=O)NS(C)(=O)=O)cc2C2CC2)CC1 [Example 209] | 15.8 |  | 1.7 |  |  |
| C[C@@H](c1cc(Cl)cc(Cl)c1)N1CCC(COc2cc(F)c(C(=O)NS(C)(=O)=O)cc2C2CC2)CC1 [Example 100, (S)-5-Cyclopropyl-4-((1-(1-(3,5-dichlorophenyl)ethyl)piperidin-4-yl)methoxy)-2-fluoro-N-(methylsulfonyl)benzamide] | 5.8 | 552 | 4.19 |  |  |
| COc1ccc(CN2CCC[C@@H](Oc3cc(F)c(C(=O)NS(C)(=O)=O)cc3C3CC3)C2)c(C)c1 [Example 434, trifluoroacetic acid salt] | 12.8 |  | 5 |  |  |
| COC[C@@H](c1cc(Cl)cc(Cl)c1)N1CCC(COc2cc(F)c(C(=O)NS(=O)(=O)C3CC3)cc2C2CC2)CC1 (single isomer, unassigned) [Example 164] | 3.3 |  | 4.3 |  |  |
| O=C(NS(=O)(=O)C1CC1)c1cc(C2CC2)c(OCC2CCN(C(c3cccc(Cl)c3)c3cccc(Cl)c3)CC2)cc1F [Example 401, 4-((1-(bis(3-chlorophenyl)methyl)piperidin-4-yl)methoxy)-5-cyclopropyl-N-(cyclopropylsulfonyl)-2-fluorobenzamide, trifluoroacetic acid salt] |  |  | 3.1 |  |  |
| CS(=O)(=O)NC(=O)c1cc(C2CC2)c(OCC2CCN(C3(c4cc(Cl)cc(Cl)c4)COC3)CC2)cc1F [Example 174, 5-Cyclopropyl-4-((1-(3-(3,5-dichlorophenyl)oxetan-3-yl)piperidin-4-yl)methoxy)-2-fluoro-N-(methylsulfonyl)benzamide] |  |  | 12 |  |  |
| O=C(NS(=O)(=O)C1CC1)c1cc(C2CC2)c(O[C@@H]2CCCN(c3cc(Cl)cc(Cl)c3)C2)cc1F [Example 42, (R)-5-cyclopropyl-N-(cyclopropylsulfonyl)-4-((1-(3,5-dichlorophenyl)piperidin-3-yl)oxy)-2-fluorobenzamide] |  |  |  |  | 2.1 |
| CCS(=O)(=O)NC(=O)c1cc(C2CC2)c(OCC2CCN([C@H](C)c3ccc(Cl)cc3Cl)CC2)cc1F [Example 284, (R)-5-cyclopropyl-4-((1-(1-(2,4-dichlorophenyl)ethyl)piperidin-4-yl)methoxy)-N-(ethylsulfonyl)-2-fluorobenzamide] |  |  | 3.6 |  |  |
| CC[C@H](c1cc(Cl)cc(Cl)c1)N1CCC(COc2cc(F)c(C(=O)NS(C)(=O)=O)cc2C2CC2)CC1 [Example 240, (R)-5-cyclopropyl-4-((1-(1-(3,5-dichlorophenyl)propyl)piperidin-4-yl)methoxy)-2-fluoro-N-(methylsulfonyl)benzamide] |  |  | 2.4 |  |  |
| CS(=O)(=O)NC(=O)c1cc(C2CC2)c(O[C@@H]2CCCN(Cc3cccc(Cl)c3)C2)cc1F [Example 26, (R)-4-((1-(3-chlorobenzyl)piperidin-3-yl)oxy)-5-cyclopropyl-2-fluoro-N-(methylsulfonyl)benzamide acid] |  |  |  |  | 6.1 |
| CS(=O)(=O)NC(=O)c1cc(C2CC2)c(O[C@@H]2CCCN(Cc3ccnnc3)C2)cc1F [Example 13, (R)-5-cyclopropyl-2-fluoro-N-(methylsulfonyl)-4-((1-(pyridazin-4-ylmethyl)piperidin-3-yl)oxy)benzamide] |  |  |  |  | 1490 |
| Cc1cc(C(=O)NS(=O)(=O)C2CC2)c(F)cc1OCC1CCN([C@@H](C)c2cc(Cl)cc(Cl)c2)CC1 [Example 359, (S)—N-(cyclopropylsulfonyl)-4-((1-(1-(3,5-dichlorophenyl)ethyl)piperidin-4-yl)methoxy)-2-fluoro-5-methylbenzamide trifluoroacetic acid salt] |  |  | 11.4 |  |  |
| O=C(NS(=O)(=O)C1CC1)c1cc(Cl)c(O[C@@H]2CCCN(Cc3ccc(F)cc3Cl)C2)cc1F.O=C(O)C(Cl)(Cl)Cl [Example 39, (R)-5-chloro-4-((1-(2-chloro-4-fluorobenzyl)piperidin-3-yl)oxy)-N-(cyclopropylsulfonyl)-2-fluorobenzamide, trichloroacetic acid salt] |  |  |  |  | 6.8 |
| CS(=O)(=O)NC(=O)c1cc(C2CC2)c(OCC2CN([C@@H](c3ccccc3)c3ccc(S(C)(=O)=O)cc3)C2)cc1F [Example 95, (S)-5-Cyclopropyl-2-fluoro-N-(methylsulfonyl)-4-((1-((4-(methylsulfonyl)phenyl)(phenyl)methyl)azetidin-3-yl)methoxy)benzamide] |  |  | 1060 |  |  |
